The values that follow come from patent US20100120715A1, “BETA-LACTAMASE INHIBITORS” (priority 2007, published 2010).

Read-outs that look alike come from different tables or passages of the source.

Experiment [1] deals with T1, Class A ESBL SHV-5 (Klebsiella pneumoniae, UniProt P0A3M1).
T1 construct: made in house; host or cells: E. coli BL21(DE3) for purified enzyme; E. coli cells containing SHV-5 for extracts
Format: biochemical, E. coli. Particulars: nitrocefin 100 μM, PBS pH 7.0, read-out: SHV-5 IC50 Range. As to the method: (§1) Isolation of β-lactamases. For all examples, purified beta-lactamase enzymes were used to measure a compounds' ability to inhibit the Class A ESBL CTXM-15, the Class C P99 AmpC and the Class A carbapenemase KPC-2. […] The enzyme preparations are described herein.
For the preparation of SHV-5 extracts, E. coli cells containing SHV-5 were cultured overnight with shaking at a volume of 20 mL. They were further diluted 10-fold and grown to mid-log phase (OD at 600 nm, 0.5-0.8) in Mueller-Hinton II (MH-II) broth at 37° C. The cells were pelleted at 5000 g, washed and resuspended in 2 mL PBS pH 7.0. The β-lactamase was extracted by four cycles of freezing and thawing followed by centrifugation. β-lactamase activity in the extract was measured with the chromogenic cephalosporin nitrocefin. The amount of protein in each β-lactamase preparation was determined by the bicinchoninic acid (BCA) assay.
(§2) For the isolation and purification of SHV-5, p99 AmpC, KPC-2 and CTX-M15 β-lactamases, E. coli BL21(DE3) bacterial cells carrying expression plasmids (expressed as native untagged proteins) for the individual β-lactamases were grown in 1 L of Superbroth (Teknova Inc. Hollister, Calif.) supplemented with 100 μg/ml kanamycin and 1×5052 (0.5% glycerol, 0.05% glucose and 0.2% α-lactose) at 35° C. for 18-20 hours. Cells were harvested by centrifugation (4,000×g, 4° C., 20 min), and resuspended in 50 ml of 10 mM HEPES pH 7.5 ( 1/20 of the initial volume). The cells were lysed by sonication (5 pulses of 45 seconds) at 45 W on ice. The lysates were clarified by centrifugation at 10,000×g for 40 minutes at 4° C. Samples were diluted 5-fold in 50 mM sodium acetate pH 5.0, stored overnight at 4° C., after which they were centrifuged at 10,000×g for 30 minutes to clarify, and filtered through 0.45 μm filters. The samples were loaded onto a 5 ml Capto S sepharose cation exchange column (GE Healthcare) pre-equilibrated with 50 mM sodium acetate pH 5.0. The column was washed with 5 column volumes of 50 mM sodium acetate pH 5.0 to wash out unbound protein and a linear gradient of NaCl (0 to 500 mM) was used to elute the protein (over 16 CV) from the column. Fractions were assayed for β-lactamase activity using Centa (Calbiochem, Gibbstown, N.J.) as a reporter β-lactamase substrate for activity in the isolated fractions. Active fractions were pooled, concentrated and further purified by gel filtration chromatography on a Superdex 75 prep grade gel filtration column (GE Healthcare, Piscataway, N.J.) pre-equilibrated in 50 mM Hepes pH 7.5, 150 mM NaCl. Active fractions were pooled concentrated, quantitated by BCA protein determination (Thermo Scientific, Rockford, Ill.), and frozen at −80° C. in 20% glycerol until use.
(§3) β-lactamase Inhibition. To determine the level of inhibition of β-lactamaseenzymes, compounds were diluted in PBS at pH 7.0 to yield concentrations between 100 and 0.005 μM in microtiter plates. An equal volume of diluted enzyme stock was added, and the plates were incubated at 37° C. for 10 min. Nitrocefin solution was then dispensed as substrate into each well at a final concentration of 100 μM, and the plates were immediately read with the kinetic program at 486 nm for 10 min on the SPECTRAMAX® Plus^384 (high-throughput microplate spectrophotometer; Molecular Devices Corp., Sunnyvale, Calif.). Maximum rates of metabolism were then compared to those in control wells (without inhibitors), and percentages of enzyme inhibition were calculated for each concentration of inhibitor. The concentration of inhibitor needed to reduce the initial rate of hydrolysis of substrate by 50% (IC50) was calculated as the residual activity of β-lactamase at 486 nm using the SoftMax Pro 5.0 software (Molecular Devices Corp.).

Experiment [2] has as its target T2, Class A ESBL CTXM-15 (Escherichia coli, UniProt Q9EXV5).
T2 construct: made in house; host or cells: E. coli BL21(DE3)
Nature of the experiment: β-lactamase enzyme inhibition (nitrocefin hydrolysis), CTXM-15. Particulars: purified enzyme; nitrocefin 100 μM, PBS pH 7.0; read-out: CTXM-15 IC50 Range. The experiment is classed as biochemical. As to the method:
as §1, §2, §3

Experiment [3] addresses T3, Class C P99 AmpC (Enterobacter cloacae, UniProt P05364).
T3 construct: made in house; host or cells: E. coli BL21(DE3)
The experiment is classed as biochemical. To be noted: purified enzyme; nitrocefin 100 μM, PBS pH 7.0; read-out: P99 AmpC IC50 Range. As to the method: as §1, §2, §3

Experiment [4] has as its target T4, Class A carbapenemase KPC-2 (Klebsiella pneumoniae, UniProt Q9F663).
T4 construct: made in house; host or cells: E. coli BL21(DE3)
Nature of the experiment: β-lactamase enzyme inhibition (nitrocefin hydrolysis), KPC-2. Particulars: purified enzyme; nitrocefin 100 μM, PBS pH 7.0; read-out: KPC-2 IC50 Range. The experiment is classed as biochemical. As to the method:
as §1, §2, §3

Experiment [5] relates to K. pneumoniae expressing the Class A carbapenemase KPC-2. Nature of the experiment: microbe, parasite or virus in culture. Particulars: in the presence of fixed 8 μg/mL Ceftazidime. An excerpt: To determine the ability of test compounds to potentiate the inhibition of the growth of bacterial strains producing beta-lactamase enzymes, classic cell based screening assays were employed. Four bacteria strains producing beta-lactamase enzymes were used: K. pneumoniae expressing the Class A Extended Spectrum Beta-Lactamase (ESBL) CTX-M-15, E. coli expressing the Class A ESBL SHV-5, E. cloacae expressing the Class C P99+, and K. pneumoniae expressing the Class A carbapenemase KPC-2. In order to evaluate the ability of test compounds to inhibit beta-lactamase activity, Applicants used a modification of the broth microdilution assay. The assay was conducted in Cation Adjusted Mueller Hinton Broth (CAMHB, BD # 212322, BD Diagnostic Systems, Sparks, Md.). Bacteria strains were grown for 3-5 hours in CAMBH broth. All four strains were grown in presence of 50 μg/mL ampicillin to ensure resistance is maintained. In the meantime, test compounds were diluted in DMSO to a 0.1 mg/mL stock. The compounds were added to a microtiter plate and were diluted in 2-fold serial dilutions in CAMHB in a final concentration range of 8 μg/mL to 0.015 μg/ml. An overlay of CAMHB containing a cephalosporin was added to the compounds at a final static concentration of 8 μg/ml. […] Each of these compound plates are made in quadruplicate, one for each bacteria strain. In addition to the titration of test compounds the MICs of a panel of cephalosporins is also tested to ensure the strains are behaving consistently from test to test. Once the test compound and cephalosporin are added the plates can be inoculated. Inocula are conducted according to CLSI broth microdilution method. After inoculation the plates are incubated for 16-20 hours at 37° C. then the Minimal Inhibitory Concentration (MIC) of the test compound is determined visually.

[6] abbreviates: purified beta-lactamase enzyme (Examples 1 and 31-64).
Where [7] appears, read: cellular extracts of E. coli containing SHV-5 (Examples 2-30).

T1 sequence (P0A3M1 22-286): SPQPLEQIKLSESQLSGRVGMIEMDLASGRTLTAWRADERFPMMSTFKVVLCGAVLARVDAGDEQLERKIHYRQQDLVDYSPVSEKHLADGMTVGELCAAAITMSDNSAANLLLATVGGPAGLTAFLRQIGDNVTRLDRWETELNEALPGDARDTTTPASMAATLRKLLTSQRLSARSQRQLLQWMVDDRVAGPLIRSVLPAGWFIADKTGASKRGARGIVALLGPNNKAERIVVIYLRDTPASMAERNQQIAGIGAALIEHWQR
T4 sequence (Q9F663 25-293 limits assumed): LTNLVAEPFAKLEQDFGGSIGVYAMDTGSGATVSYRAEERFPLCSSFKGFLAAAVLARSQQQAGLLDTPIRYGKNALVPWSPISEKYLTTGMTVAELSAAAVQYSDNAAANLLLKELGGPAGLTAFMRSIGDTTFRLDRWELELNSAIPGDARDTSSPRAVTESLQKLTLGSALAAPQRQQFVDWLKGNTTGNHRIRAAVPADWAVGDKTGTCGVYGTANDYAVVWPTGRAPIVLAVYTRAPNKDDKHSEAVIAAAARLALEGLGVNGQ
T3 sequence (P05364 21-381): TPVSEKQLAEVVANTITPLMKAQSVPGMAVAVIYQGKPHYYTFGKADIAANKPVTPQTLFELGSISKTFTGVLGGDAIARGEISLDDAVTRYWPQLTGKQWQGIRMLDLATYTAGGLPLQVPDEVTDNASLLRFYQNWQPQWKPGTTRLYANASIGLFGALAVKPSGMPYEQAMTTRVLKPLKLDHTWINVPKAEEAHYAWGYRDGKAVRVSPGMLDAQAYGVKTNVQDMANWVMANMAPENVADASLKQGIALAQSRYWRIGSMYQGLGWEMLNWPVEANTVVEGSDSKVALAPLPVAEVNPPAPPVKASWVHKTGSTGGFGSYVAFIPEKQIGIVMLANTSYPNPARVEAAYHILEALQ
T2 sequence (Q9EXV5 entry or part of it): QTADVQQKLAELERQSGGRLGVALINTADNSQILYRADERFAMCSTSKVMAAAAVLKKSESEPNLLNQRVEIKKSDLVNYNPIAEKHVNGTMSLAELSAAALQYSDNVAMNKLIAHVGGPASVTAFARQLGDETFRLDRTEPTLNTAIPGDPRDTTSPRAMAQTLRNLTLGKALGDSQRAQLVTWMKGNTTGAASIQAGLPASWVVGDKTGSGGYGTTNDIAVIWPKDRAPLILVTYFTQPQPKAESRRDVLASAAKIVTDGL

What is called IC50 is the concentration that gives 50% inhibition. For `COc1ccc(C(=O)N[C@@H](Cc2cccc(C(=O)O)c2O)B(O)O)cc1` [Example 33, (1R)-1-(4-Methoxybenzoyl)-amino-1-(3-carboxy-2-hydroxy)benzyl-methylboronic acid], the IC50 was 100 to 1000 nM in experiment [1] (setting [6]), less than 10 nM in experiment [2], less than 10 nM in experiment [3] and less than 10 nM in experiment [4]. Besides, the “MIC of example compound, K. pneumoniae KPC-2 + 8 μg/mL CAZ” value (“MIC of example compound” for short) in experiment [5] was “C (C represents an MIC of <1 μg/mL)”.
On to `O=C(N[C@@H](Cc1cccc(C(=O)O)c1O)B(O)O)c1ccncc1` [Example 55, (1R)-1-(Pyridine-4-carbonyl-amino)-2-(2-hydroxy-3-carboxyphenyl)ethyl-1-boronic acid], for which the IC50 in experiment [1] (setting [6]) was 10 to 100 nM; in experiment [2], less than 10 nM; in experiment [3] it was less than 10 nM; in experiment [4], less than 10 nM.
Turning to `O=C(N[C@@H](Cc1cccc(C(=O)O)c1O)B(O)O)c1ccccc1O` [Example 35, (1R)-1-(2-hydroxybenzoylamino)-2-(2-hydroxy-3-carboxyphenyl)ethyl-1-boronic acid], the IC50 in experiment [1] (setting [6]) was 10 to 100 nM; in experiment [2] it was less than 10 nM; in experiment [3] it was less than 10 nM; in experiment [4], 10 to 100 nM. In addition, in experiment [5], the “MIC of example compound” value is listed as “C (C represents an MIC of <1 μg/mL)”.
Consider `CC(=O)Nc1nc(CC(=O)N[C@@H](Cc2cccc(C(=O)O)c2O)B(O)O)cs1` [Example 63, (1R)-1-((2-Acetylamino-thiazol-4-yl)-acetylamino)-2-(2-hydroxy-3-carboxyphenyl)ethyl-1-boronic acid], for which the half-inhibitory concentration (IC50) in experiment [1] (setting [6]), in experiment [2], in experiment [3] and in experiment [4] was less than 10 nM throughout. Also, the “MIC of example compound” value in experiment [5] is “C (C represents an MIC of <1 μg/mL)”.
Regarding `O=C(CN1C(=O)c2ccccc2C1=O)N[C@@H](Cc1cccc(C(=O)O)c1O)B(O)O` [Example 45, (1R)-1-(2-(1,3-dioxoisoindolin-2-yl)acetylamino)-2-(2-hydroxy-3-carboxyphenyl)ethyl-1-boronic acid], the half-inhibitory concentration (IC50) in experiment [1] (setting [6]), in experiment [2], in experiment [3] and in experiment [4] was less than 10 nM in each case. Further, in experiment [5], the “MIC of example compound” value is “C (C represents an MIC of <1 μg/mL)”.
With `O=C(N[C@@H](Cc1cccc(C(=O)O)c1O)B(O)O)c1ccc(Cl)cc1` [Example 32, (1R)-1-(4-Chloro-benzoyl)-amino-1-(3-carboxy-2-hydroxy)benzyl-methylboronic acid], the IC50 in experiment [1] (setting [6]) is 10 to 100 nM; in experiment [2], less than 10 nM; in experiment [3], less than 10 nM; in experiment [4], less than 10 nM. Moreover, in experiment [5], the “MIC of example compound” value is given as “C (C represents an MIC of <1 μg/mL)”.
Turning to `O=C(O)c1cccc(C[C@H](NC(=O)c2cccc3ccccc23)B(O)O)c1O` [Example 27, (1R)-1-(1-naphthoylamino)-2-(2-hydroxy-3-carboxyphenyl)ethyl-1-boronic acid], the 50% inhibitory concentration (IC50) is 10 to 100 nM in experiment [1] (setting [7]), less than 10 nM in experiment [2], less than 10 nM in experiment [3] and less than 10 nM in experiment [4]. The “MIC of example compound” value in experiment [5] is listed as “C (C represents an MIC of <1 μg/mL)”.
For `O=C(N[C@@H](Cc1cccc(C(=O)O)c1O)B(O)O)c1cnccn1` [Example 58, (1R)-1-(Pyrazine-2-carbonyl-amino)-2-(2-hydroxy-3-carboxyphenyl)ethyl-1-boronic acid], the IC50 in experiment [1] (setting [6]) was 10 to 100 nM; in experiment [2] it was less than 10 nM; in experiment [3], 10 to 100 nM; in experiment [4] it was less than 10 nM. The “MIC of example compound” value in experiment [5] is listed as “C (C represents an MIC of <1 μg/mL)”.
With `O=C(N[C@@H](Cc1cccc(C(=O)O)c1O)B(O)O)c1cccc(-n2ccnc2)c1` [Example 57, (1R)-1-(3-Imidazol-1-yl-benzoylaminoamino)-2-(2-hydroxy-3-carboxyphenyl)ethyl-1-boronic acid], the IC50 in experiment [1] (setting [6]), in experiment [2], in experiment [3] and in experiment [4] was less than 10 nM in each case. Further, the “MIC of example compound” value in experiment [5] is recorded as “C (C represents an MIC of <1 μg/mL)”.
`Cc1ccccc1C(=O)N[C@@H](Cc1cccc(C(=O)O)c1O)B(O)O` [Example 30, (1R)-1-(2-methylbenzoylamino)-2-(2-hydroxy-3-carboxyphenyl)ethyl-1-boronic acid]: the 50% inhibitory concentration (IC50) in experiment [1] (setting [7]) is 10 to 100 nM; in experiment [2] it was less than 10 nM; in experiment [3] it was less than 10 nM; in experiment [4], less than 10 nM. Besides, in experiment [5], the “MIC of example compound” value was “C (C represents an MIC of <1 μg/mL)”.
